pKd: −log10 of the molar value. “Also recorded” adds a separate entry of the source. Where two headings read alike, the source gives them in different places.
Columns and labels:
[1] = test system: HSC-3 cells and MOK-101 cells; test: Peptide induced cell uptake assay (confocal); format: cell-based, human; settings: HSC-3 and MOK-101 cells, up to 3 hours, cytoplasm and nucleus
Description: Peptide induced cell uptake assay was used to investigate endocytic uptake of the targeting peptide by live OSC cells. Biotinylated LLY13 was pre-incubated (50 μM) with streptavidin-Alexa488 (1mg/mL) for 2 hours at room temperature and then at 4° C overnight to form the biotin-peptides/streptavidin-Alexa488 complex. Oral cancer cells of HSC-3 cells and MOK-101 were seeded in chamber slides at a concentration of 2.3 × 10^4 cells. After 60% confluency, biotin-peptides-streptavidin-Alexa488 complexes were added at different time intervals (30 min, one hour, two hours and three hours). By the end of experiments, 1:2000 dilution of DAPI was added to the specimens. Peptide induced endocytic uptake of cancer cells was observed under confocal laser scanning microscope.

[2] = test system: normal human keratinocyte (NHK) cells; test: MTS assay evaluation of cytotoxicity; format: cell-based; settings: 48 hours treatment, up to 50 μM
Description: MTS assay was used to evaluate the potential cytotoxicity of peptides against normal human keratinocytes. Briefly, 2 × 10^3 NHK cells were seeded in 96 well tissue culture plates and analysis was performed 48 hours after treatment with LLY12 and LLY13 by adding 20 μL per well of the tetrazolium salt MTS, 3-(4,5-dimethylthiazol-2-yl)-5-(3-carboxymethoxyphenyl)-2-(4-sulfophenyl)-2H-tetrazolium for 2 hours at 37° C. The 96 well plates were read on a VERSA max tunable microplate reader at 490 nm. Similar to the MTT assay, the reduction of MTS solutions to formazan reflects mitochondrial activity and cell viability by proxy.

[3] = test system: human oral cancer cells HSC-3; test: Flow cytometry study of binding affinity of ligands; settings: HSC-3 cells; for pKd: biotinylated peptide followed by streptavidin-PE
Description: Flow cytometry was employed to compare the binging affinity of LLY12 and LLY13 [25–27]. Confluent tumor cells (80–90%) were dissociated with 0.05% trypsin-EDTA and neutralized with culture medium. After washed three times with F10 buffer, containing PBS with 10% FBS and 1 mM MnCl2 , the human oral cancer cells HSC-3 (3 × 10^5) were added with different concentration of biotinylated LLY12 and LLY13 in 50 μL F10 media for 30 minutes on ice. Then each sample was washed three times with 1 mL PBS containing 1% FBS. Samples thereafter were incubated with a 1:500 dilution of streptavidin-phycoerythrin (1 mg/mL) for 30 min on ice followed by a single wash with 1 mL of PBS containing 1% FBS. Finally, the samples in PBS were analyzed by flow cytometry and the mean fluorescence intensity (MFI) was acquired for each individual sample.

| Substance | cellular uptake (internalization) by live OSC cells [1] | cytotoxicity (MTS assay) [2] | pKd ([3]; read-out: Kd value) | Bmax value (maximum binding capacity) ([3]; flow cytometry) | Bmax (maximum binding) ([3]; flow cytometry, Figure 4) [AU] | pKd ([3]; Figure 4, read-out: Kd) | maximum binding capacity in comparison to LLY12 ([3]; flow cytometry) |
| --- | --- | --- | --- | --- | --- | --- | --- |
| cyclic cdG (Nle) G(Hyp) Lc [LLY12] | not observed | no obvious cytotoxicity; also recorded: not cytotoxic | 6.06 | 248 | 248 | – | – |
| cyclic cdGYG (Hyp) Wc [LLY13] | – | no obvious cytotoxicity; also recorded: not cytotoxic | 5.90 | 764 | 764 | 5.91 | around 3 fold |
